The target of one test is T1, HIS-TGFβR1 T204D (Homo sapiens, UniProt P36897, T204D).
T1 sequence (P36897 34-503 T204D): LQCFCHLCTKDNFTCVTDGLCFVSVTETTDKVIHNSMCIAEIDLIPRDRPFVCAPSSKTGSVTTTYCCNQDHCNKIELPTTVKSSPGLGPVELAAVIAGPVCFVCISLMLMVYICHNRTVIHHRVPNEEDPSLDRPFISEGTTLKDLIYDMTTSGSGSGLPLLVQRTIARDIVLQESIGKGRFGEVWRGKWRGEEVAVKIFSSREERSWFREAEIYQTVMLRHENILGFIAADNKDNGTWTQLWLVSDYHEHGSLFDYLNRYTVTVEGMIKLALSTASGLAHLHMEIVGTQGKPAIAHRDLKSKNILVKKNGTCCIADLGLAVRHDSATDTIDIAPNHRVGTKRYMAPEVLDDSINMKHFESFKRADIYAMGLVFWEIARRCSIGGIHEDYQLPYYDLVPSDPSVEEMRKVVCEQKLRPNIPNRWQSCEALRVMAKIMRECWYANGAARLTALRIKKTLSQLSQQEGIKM
The test is described as follows: HTRF probe-displacement assay, HIS-TGFβR1 T204D. Type of test: binding. The note with it: read-out: TGFβR1 (μM) IC50. On the technique in general: In TR-FRET formats the signal depends on donor and acceptor labels being close together.

The next test concerns the target HIS-TGFβR2 WT (Homo sapiens, UniProt P37173). Nature of the test: HTRF probe-displacement assay, HIS-TGFβR2 WT. Type of test: binding.

HIS-TGFβR2 WT, sequence (P37173 23-567): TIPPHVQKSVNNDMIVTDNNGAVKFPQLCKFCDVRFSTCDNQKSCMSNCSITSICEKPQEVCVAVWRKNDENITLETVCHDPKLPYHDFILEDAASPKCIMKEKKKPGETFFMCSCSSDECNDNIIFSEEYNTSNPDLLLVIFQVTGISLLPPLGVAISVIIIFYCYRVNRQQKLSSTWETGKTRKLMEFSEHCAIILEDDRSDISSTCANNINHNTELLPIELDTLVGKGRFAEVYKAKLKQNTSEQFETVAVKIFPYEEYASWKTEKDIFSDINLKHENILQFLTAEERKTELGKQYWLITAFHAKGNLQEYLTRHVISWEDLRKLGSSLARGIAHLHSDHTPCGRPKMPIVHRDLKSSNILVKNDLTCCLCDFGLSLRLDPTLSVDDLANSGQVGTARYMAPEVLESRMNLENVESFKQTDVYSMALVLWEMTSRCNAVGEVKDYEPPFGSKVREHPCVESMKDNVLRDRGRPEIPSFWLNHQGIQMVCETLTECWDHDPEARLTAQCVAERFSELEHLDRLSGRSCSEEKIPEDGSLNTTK

A word on the IC50: it is the concentration needed to halve the response being measured. In the case of `COc1ccc(-c2c(-c3ccnc(NCC(C)C)c3)[nH]c3cc(Cl)cnc23)nc1` [Example 243, 4-(6-Chloro-3-(5-methoxypyridin-2-yl)-1H-pyrrolo[3,2-b]pyridin-2-yl)-N-isobutylpyridin-2-amine], the concentration for half-maximal inhibition (IC50) was 0.361 µM at HIS-TGFβR1 T204D and at least 15 µM at HIS-TGFβR2 WT.

For `O=C(CN1CCC(O)CC1)Nc1cc(-c2[nH]c3cc(Cl)cnc3c2-c2ccc(F)cn2)ccn1` [Example 244, N-(4-(6-Chloro-3-(5-fluoropyridin-2-yl)-1H-pyrrolo[3,2-b]pyridin-2-yl)pyridin-2-yl)-2-(4-hydroxypiperidin-1-yl)acetamide], the IC50 at HIS-TGFβR1 T204D came to 0.003 µM; at HIS-TGFβR2 WT it was 7.82 µM.

As to `CN(C)C1CCN(CC(=O)Nc2cc(-c3[nH]c4cc(Cl)cnc4c3-c3ccc(F)cn3)ccn2)CC1` [Example 245, N-(4-(6-Chloro-3-(5-fluoropyridin-2-yl)-1H-pyrrolo[3,2-b]pyridin-2-yl)pyridin-2-yl)-2-(4-(dimethylamino)piperidin-1-yl)acetamide], the half-inhibitory concentration (IC50) was 0.002 µM on HIS-TGFβR1 T204D and 4.07 µM on HIS-TGFβR2 WT.

Turning to `O=C(CN1CCN(CCO)CC1)Nc1cc(-c2[nH]c3cc(Cl)cnc3c2-c2ccc(F)cn2)ccn1` [Example 246, N-(4-(6-Chloro-3-(5-fluoropyridin-2-yl)-1H-pyrrolo[3,2-b]pyridin-2-yl)pyridin-2-yl)-2-(4-(2-hydroxyethyl)piperazin-1-yl)acetamide], the results for the half-maximal inhibitory concentration (IC50) on HIS-TGFβR1 T204D and on HIS-TGFβR2 WT were 0.001 µM and 5.99 µM, respectively.

Regarding `O=C(CN1CCNCC1)Nc1cc(-c2[nH]c3cc(Cl)cnc3c2-c2ccc(F)cn2)ccn1` [Example 247, N-(4-(6-Chloro-3-(5-fluoropyridin-2-yl)-1H-pyrrolo[3,2-b]pyridin-2-yl)pyridin-2-yl)-2-(piperazin-1-yl)acetamide], the IC50 at HIS-TGFβR1 T204D is 0.003 µM; at HIS-TGFβR2 WT, at least 15 µM.

For the molecule `CC(=O)N1CCN(CC(=O)Nc2cc(-c3[nH]c4cc(Cl)cnc4c3-c3ccc(F)cn3)ccn2)CC1` [Example 248, 2-(4-Acetylpiperazin-1-yl)-N-(4-(6-chloro-3-(5-fluoropyridin-2-yl)-1H-pyrrolo[3,2-b]pyridin-2-yl)pyridin-2-yl)acetamide], the values for the IC50 on HIS-TGFβR1 T204D and at HIS-TGFβR2 WT were 0.002 µM and 14.5 µM, respectively.

As to `COc1ccc(-c2c(-c3ccnc(NC(=O)CN4CCN(C)CC4)c3)[nH]c3cc(Cl)cnc23)nc1` [Example 249, N-(4-(6-Chloro-3-(5-methoxypyridin-2-yl)-1H-pyrrolo[3,2-b]pyridin-2-yl)pyridin-2-yl)-2-(4-methylpiperazin-1-yl)acetamide], the IC50 is 0.007 µM at HIS-TGFβR1 T204D and above 15 µM at HIS-TGFβR2 WT.

In the case of `COc1ccc(-c2c(-c3ccnc(NC(=O)CN4CCOCC4)c3)[nH]c3cc(Cl)cnc23)nc1` [Example 250, N-(4-(6-Chloro-3-(5-methoxypyridin-2-yl)-1H-pyrrolo[3,2-b]pyridin-2-yl)pyridin-2-yl)-2-morpholinoacetamide], the IC50 on HIS-TGFβR1 T204D was 0.007 µM; at HIS-TGFβR2 WT, above 15 µM.

Regarding `CCN1CCN(CC(=O)Nc2cc(-c3[nH]c4cc(Cl)cnc4c3-c3ccc(OC)cn3)ccn2)CC1` [Example 251, N-(4-(6-Chloro-3-(5-methoxypyridin-2-yl)-1H-pyrrolo[3,2-b]pyridin-2-yl)pyridin-2-yl)-2-(4-ethylpiperazin-1-yl)acetamide], the half-inhibitory concentration (IC50) at HIS-TGFβR1 T204D was 0.005 µM; on HIS-TGFβR2 WT it was above 15 µM.

Take `COc1ccc(-c2c(-c3ccnc(NC(=O)CN4CCN(CCO)CC4)c3)[nH]c3cc(Cl)cnc23)nc1` [Example 252, N-(4-(6-Chloro-3-(5-methoxypyridin-2-yl)-1H-pyrrolo[3,2-b]pyridin-2-yl)pyridin-2-yl)-2-(4-(2-hydroxyethyl)piperazin-1-yl)acetamide]: the results for the IC50 on HIS-TGFβR1 T204D and on HIS-TGFβR2 WT were 0.001 µM and above 15 µM, respectively.

Take `CCOc1ccc(-c2c(-c3ccnc(NC(C)=O)c3)[nH]c3cc(Cl)cnc23)nc1` [Example 253, N-(4-(6-Chloro-3-(5-ethoxypyridin-2-yl)-1H-pyrrolo[3,2-b]pyridin-2-yl)pyridin-2-yl)acetamide]: the concentration for half-maximal inhibition (IC50) at HIS-TGFβR1 T204D was 0.004 µM; on HIS-TGFβR2 WT, above 15 µM.

As to `CC(=O)Nc1cc(-c2[nH]c3cc(Cl)cnc3c2-c2ccc(OC(C)C)cn2)ccn1` [Example 254, N-(4-(6-Chloro-3-(5-isopropoxypyridin-2-yl)-1H-pyrrolo[3,2-b]pyridin-2-yl)pyridin-2-yl)acetamide], the IC50 was 0.065 µM on HIS-TGFβR1 T204D and above 15 µM on HIS-TGFβR2 WT.

Turning to `CC(=O)Nc1cc(-c2[nH]c3cc(Cl)cnc3c2-c2cccc(OC(C)C)n2)ccn1` [Example 255, N-(4-(6-Chloro-3-(6-isopropoxypyridin-2-yl)-1H-pyrrolo[3,2-b]pyridin-2-yl)pyridin-2-yl)acetamide], the IC50 is 0.433 µM at HIS-TGFβR1 T204D and above 15 µM on HIS-TGFβR2 WT.

As to `CCOc1cccc(-c2c(-c3ccnc(NC(C)=O)c3)[nH]c3cc(Cl)cnc23)n1` [Example 256, N-(4-(6-Chloro-3-(6-ethoxypyridin-2-yl)-1H-pyrrolo[3,2-b]pyridin-2-yl)pyridin-2-yl)acetamide], the concentration for half-maximal inhibition (IC50) at HIS-TGFβR1 T204D was 0.02 µM; on HIS-TGFβR2 WT, above 15 µM.

For `COc1ccnc2c(-c3cccc(C)n3)c(-c3ccnc(NC(C)=O)c3)[nH]c12` [Example 257, N-(4-(7-Methoxy-3-(6-methylpyridin-2-yl)-1H-pyrrolo[3,2-b]pyridin-2-yl)pyridin-2-yl)acetamide], the results for the half-inhibitory concentration (IC50) at HIS-TGFβR1 T204D and on HIS-TGFβR2 WT were 0.003 µM and 6.21 µM, respectively.

For `CCOc1ccc(-c2c(-c3ccnc(NC(C)=O)c3)[nH]c3cc(Cl)cnc23)cn1` [Example 258, N-(4-(6-Chloro-3-(6-ethoxypyridin-3-yl)-1H-pyrrolo[3,2-b]pyridin-2-yl)pyridin-2-yl)acetamide], the half-maximal inhibitory concentration (IC50) at HIS-TGFβR1 T204D worked out at 0.002 µM; at HIS-TGFβR2 WT it was 6.29 µM.

For the molecule `CC(=O)Nc1cc(-c2[nH]c3cc(Cl)cnc3c2-c2ncccc2C)ccn1` [Example 259, N-(4-(6-Chloro-3-(3-methylpyridin-2-yl)-1H-pyrrolo[3,2-b]pyridin-2-yl)pyridin-2-yl)acetamide], the half-inhibitory concentration (IC50) was 0.535 µM on HIS-TGFβR1 T204D and above 15 µM on HIS-TGFβR2 WT.

Turning to `CC(=O)Nc1cc(-c2[nH]c3cc(Cl)cnc3c2-c2cccc(C(C)C)n2)ccn1` [Example 260, N-(4-(6-Chloro-3-(6-isopropylpyridin-2-yl)-1H-pyrrolo[3,2-b]pyridin-2-yl)pyridin-2-yl)acetamide], the results for the IC50 on HIS-TGFβR1 T204D and on HIS-TGFβR2 WT were 0.049 µM and above 15 µM, respectively.

In the case of `CC(=O)Nc1cc(-c2[nH]c3c(C(C)O)ccnc3c2-c2ccc(F)nc2)ccn1` (stereo not drawn) [Example 261, N-(4-(3-(6-Fluoropyridin-3-yl)-7-(1-hydroxyethyl)-1H-pyrrolo[3,2-b]pyridin-2-yl)pyridin-2-yl)acetamide], the half-inhibitory concentration (IC50) on HIS-TGFβR1 T204D is 0.005 µM; at HIS-TGFβR2 WT, 0.011 µM.

For the molecule `CC(=O)Nc1cc(-c2[nH]c3c(C(C)O)ccnc3c2-c2cccc(F)n2)ccn1` (stereo not drawn) [Example 262, N-(4-(3-(6-Fluoropyridin-2-yl)-7-(1-hydroxyethyl)-1H-pyrrolo[3,2-b]pyridin-2-yl)pyridin-2-yl)acetamide], the IC50 came to 0.002 µM at HIS-TGFβR1 T204D and 0.267 µM on HIS-TGFβR2 WT.

With `CC(=O)Nc1cc(-c2[nH]c3c(C(C)O)ccnc3c2-c2cccc(Cl)n2)ccn1` (stereo not drawn) [Example 263, N-(4-(3-(6-Chloropyridin-2-yl)-7-(1-hydroxyethyl)-1H-pyrrolo[3,2-b]pyridin-2-yl)pyridin-2-yl)acetamide], the results for the half-inhibitory concentration (IC50) on HIS-TGFβR1 T204D and at HIS-TGFβR2 WT were 0.001 µM and 0.279 µM, respectively.

Regarding `CC(=O)Nc1cc(-c2[nH]c3c(C(C)O)ccnc3c2-c2ccc(Cl)nc2)ccn1` (stereo not drawn) [Example 264, N-(4-(3-(6-Chloropyridin-3-yl)-7-(1-hydroxyethyl)-1H-pyrrolo[3,2-b]pyridin-2-yl)pyridin-2-yl)acetamide], the 50% inhibitory concentration (IC50) was determined as 0.001 µM on HIS-TGFβR1 T204D and 0.681 µM at HIS-TGFβR2 WT.

On to `CC(=O)Nc1cc(-c2[nH]c3c(C(C)O)ccnc3c2-c2ccc(F)cn2)ccn1` (stereo not drawn) [Example 265, N-(4-(3-(5-Fluoropyridin-2-yl)-7-(1-hydroxyethyl)-1H-pyrrolo[3,2-b]pyridin-2-yl)pyridin-2-yl)acetamide], for which the IC50 was 0.004 µM at HIS-TGFβR1 T204D and 1.05 µM at HIS-TGFβR2 WT.

For the molecule `COc1ccc(-c2c(-c3ccnc(NC(C)=O)c3)[nH]c3c(OC)ccnc23)nc1` [Example 266, N-(4-(7-Methoxy-3-(5-methoxypyridin-2-yl)-1H-pyrrolo[3,2-b]pyridin-2-yl)pyridin-2-yl)acetamide], the half-maximal inhibitory concentration (IC50) was 0.005 µM on HIS-TGFβR1 T204D and above 15 µM on HIS-TGFβR2 WT.

Turning to `COc1ccnc2c(-c3cccc(C(F)F)n3)c(-c3ccnc(NC(C)=O)c3)[nH]c12` [Example 267, N-(4-(3-(6-(Difluoromethyl)pyridin-2-yl)-7-methoxy-1H-pyrrolo[3,2-b]pyridin-2-yl)pyridin-2-yl)acetamide], the results for the half-maximal inhibitory concentration (IC50) on HIS-TGFβR1 T204D and at HIS-TGFβR2 WT were 0.002 µM and above 15 µM, respectively.

In the case of `COc1ccnc2c(-c3ccc(F)cn3)c(-c3ccnc(NC(C)=O)c3)[nH]c12` [Example 268, N-(4-(3-(5-Fluoropyridin-2-yl)-7-methoxy-1H-pyrrolo[3,2-b]pyridin-2-yl)pyridin-2-yl)acetamide], the 50% inhibitory concentration (IC50) at HIS-TGFβR1 T204D was determined as 0.005 µM; at HIS-TGFβR2 WT it was 2.45 µM.

As for `COc1ccc(-c2c(-c3ccnc(NC(C)=O)c3)[nH]c3c(OC)ccnc23)cn1` [Example 269, N-(4-(7-Methoxy-3-(6-methoxypyridin-3-yl)-1H-pyrrolo[3,2-b]pyridin-2-yl)pyridin-2-yl)acetamide], the concentration for half-maximal inhibition (IC50) on HIS-TGFβR1 T204D was 0.067 µM; at HIS-TGFβR2 WT it was 1.04 µM.

The values are drawn from patent US9708316B2 (BRISTOL-MYERS SQUIBB COMPANY, priority 2014, dated 2017).
